System: HCV Genotype 3
Assay: Patient-derived monocytes fused to hepatocytes, HCV RNA by qPCR
Type: cell-based
Settings: fused cells from patients with genotype 3 HCV; 3 to 7 days with telaprevir; FIG. 8
Description: Patient derived monocytes from patients with genotype 1 and genotype 3 HCV were taken and incubated for a variety of different times (ranging from 3 to 7 days) with telaprevir at concentrations known to inhibit HCV RNA. The amount of HCV RNA was assessed using a standard qPCR technique and is expressed as the raw Ct value from the Corbett Rotorgene.
CD14+ monocytes were positively selected from total PBMCs by magnetic cell separation, according to the manufacturer's instructions. The CD14+ cells obtained were counted and pelleted with an equal number of HuH 7.5 cells. The cell pellet was resuspended in pre-warmed polyethylene glycol 1500 (PEG 1500, Roche) over 1 minute then incubated at 37° C. for 2 minutes. […]
RNA was extracted from fused cells immediately after fusion and following a 5 day incubation using TRIzol reagent (Invitrogen). Total RNA obtained was quantified using the RiboGreen assay (Invitrogen). HCV RNA was measured by reverse transcription-quantitative PCR (RT-qPCR) using the Quantitect viral nucleic acid detection kit (Qiagen) in 20 μL volumes with a TaqMan primer and probe for HCV detection (Applied Biosystems). 10-fold serial dilutions of PCR product corresponding to a 319 nucleotide segment between the 5′untranslated region and E1 region of the HCV genome were included as a quantitative standard. […]

Q: How did the “replication of HCV (HCV RNA)” value turn out when `CCC[C@H](NC(=O)[C@@H]1[C@H]2CCC[C@H]2CN1C(=O)[C@@H](NC(=O)[C@@H](NC(=O)c1cnccn1)C1CCCCC1)C(C)(C)C)C(=O)C(=O)NC1CC1` [telaprevir] was run?
A: The value was “not inhibited”.

Reference: patent US20150210984A1, “METHOD FOR R[…] IN VITRO” (priority 2011, published 2015)
